Test [1] has as its system collagen-induced arthritis in mice. In words: In vivo CIA model (collagen-induced arthritis). Also noted: species or system DBA/1 mice; Average clinical symptom score: dose or concentration left out as unconfirmed; key to Total pathological score (both hind limbs): each of 4 joint-damage aspects scored 0-4, summed over both hind limbs. The following applies: for Total pathological score (both hind limbs): day 38, Mean±SEM. The source says: A series of symptoms similar to human psoriatic arthritis, such as redness and swelling of the joint, articular cartilage damage, and capsula articularis damage are elicited in the model by injection of type II collagen to activate reactivity of B cells, T cell on bone collagen, and the activated B cells and T cells enter the joints to cause joint inflammation. During pre-clinical evaluation of candidate compounds for treating psoriatic arthritis, collagen-induced arthritis in mice is often used to evaluate the effectiveness.
The purpose of this experiment was to study the therapeutic effect of Compound 1 on collagen-induced arthritis in mice, so as to provide preclinical pharmacodynamic relevant information for subsequent clinical studies.
1. Type II collagen/complete Freund's adjuvant immunization
Preparation of acetic acid: Diluting acetic acid to 100 mM, which was filtered with 0.22 um filter membrane and stored at 4° C.
Bovine type II collagen solution: Dissolving bovine type II collagen (CII) in acetic acid solution, which was stored at 4° C. overnight.
Preparation of emulsion: Mixing the CII solution stored overnight with equal volume of the complete Freund's adjuvant and homogenize the mixture with high-speed homogenizer until the solution formed a stable emulsion.
Preparation of lipopolysaccharide (LPS): Weighing LPS, adding normal saline, and mixing until a stable solution with concentration of […] was formed.
The mice were randomly assigned to different treatment groups. The day of the first immunization was recorded as day 0, and the subsequent days were marked sequentially.
After DBA/1 mice were anesthetized with isoflurane, the prepared collagen emulsion was injected subcutaneously in the tail.
On day 23, 100 μl of LPS solution was injected intraperitoneally.
On day 27, when the average clinical score reached about 1, 60 mice with moderate onset were selected, and they were re-randomized according to body weight and score, with 10 mice in each group.
Dexamethasone as positive control drug in 0.3 mg/kg dose group is commonly used in the CIA model. In addition, the relevant dose design of Compound 1 and the control compound Apremilast were determined according to the results of earlier preliminary experiments. Group 1 was normal mice without any treatment; Group 2 was vehicle control group and was administered vehicle; Group 3 was administered dexamethasone at a dose of 0.3 mg/kg; Group 4 was administered Apremilast at a dose of 5 mg/kg; Group 5, Group 6, and Group 7 were administered Compound 1 with doses of 0.3, 1, and 3 mg/kg, respectively. Administration was given once a day for 11 days in total. The volume of intragastric administration was 10 ml/kg.
Clinical observation: From 7 days before immunization to 23 days after immunization, the basic health status and body weight changes of DBA/1 mice were observed daily (recorded once a week). After the 23rd day, the health status, morbidity and body weight change of the mice were observed daily (recorded at least three times a week) until the end of the experiment.
Clinical score: After LPS injection, the morbidities of mice were observed every day. After the onset of disease in mice (clinical symptoms of arthritis), they were scored according to severity of conditions (redness and swelling, joint deformation) according to 0-4 point standard, with a maximum score of 4 for each limb, and a maximum score of 16 for each animal. At least three times of scoring were performed a week.
Pathology: On day 38, the mouse was euthanized. The two posterior limbs of the mouse were taken, soaked with 10% formalin solution, decalcified with formic acid solution, embedded with paraffin, sectioned, stained with hematoxylin-eosin (HE), and observed with photomicrography. The degree of joint damage was evaluated in four aspects: inflammatory cell infiltration, pannus formation, cartilage injury and bone resorption, and scored according to 0-4 score standard. […]

Test [2] deals with T1, phosphodiesterase 4B subtype (PDE4B) (Homo sapiens, UniProt Q07343).
T1 construct: amino acid 305 terminal; GST (N); made in house; host or cells: Sf9 insect cells (baculovirus)
Nature of the test: Inhibitory activity on PDE4B enzyme (fluorescence polarization). In kind it is biochemical. On the procedure:
This biological experiment based on fluorescence polarization was used to determine AMP/GMP expression, that is, to show enzyme activity by tracking AMP/GMP antibody binding.
Experimental buffer solution: 10 mM Trihydroxymethyl aminomethane-hydrochloric acid buffer solution (Tris-HCl) (pH 7.5), 5 mM MgCl2, 0.01% Polyoxyethylene lauryl ether (Brij 35), 1 mM Dithiothreitol (DTT), and 1% DMSO.
Enzymes: Recombinant humanized PDE4B (Genebank Accession Number NM_002600; amino acid 305 terminal) was expressed with baculovirus in Sf9 insect cells using N-terminal GST tag. MW=78 kDa.
Enzyme substrate: 1 μM cAMP
Detection: Transcreener®AMP2/GMP2 antibody and AMP2/ GMP2 AlexaFluor633 tracing.
• 1. Dissolving the recombinant human PDE4B enzyme and enzyme substrate (1 μM cAMP) in freshly prepared experimental buffer; • 2. Transferring the above PDE4B enzyme buffer solution to reaction wells; • 3. Adding Compound 1 dissolved with 100% DMSO to the reaction well with PDE4B enzyme buffer solution via acoustic technology (echo 550 nanoliter range) and incubating for 10 min at room temperature; • 4. […] The range of fluorescence polarization determination is Ex/Em=620/688.
Data Analysis: The fluorescence polarization signal was converted into nM according to the AMP/GMP standard curve and the control % enzyme activity relative to the DMSO calculated by Excel software. […]

The subject of test [3] is TNFα production in human peripheral blood mononuclear cells (hPBMC). In words: Inhibition of LPS-induced TNFα production in hPBMC. In kind it is cell-based. On the procedure:
The inhibitory activity of Compound 1 of lipopolysaccharide (LPS)-induced TNFα production in human peripheral blood mononuclear cells.
• 1. Collecting normal human whole blood, which was anticoagulated with EDTA-K2 anticoagulation tube; • 2. Separating PBMC with Ficoll density gradient centrifugation, counting and adjusting the cell concentration to 2×10^6/mL; • 3. To U-bottom 96-well plate were added 2×10^5 cells/well, LPS 1 ng/mL was added, various concentrations of compound at 100 μM, 10 μM, 1 μM, 100 nM, 10 nM, 1 nM, 100 pM, 10 pM, 200 μl system/well, in duplicated wells; • 4. Incubating for 24 h, collecting the supernatant; • 5. Detecting the level of TNFα in supernatant with ELISA, fitting the inhibition curve and calculating IC50 with Graphpad Prism software.

The mark [4] stands for this setting: Mus musculus, po, 264 h, 0.3 mg/kg gavage once a day for 11 days, read-out: Inhibition rate of area under the clinical score curve (AUC) relative to vehicle control group.

T1 sequence (Q07343 305-736 limits assumed): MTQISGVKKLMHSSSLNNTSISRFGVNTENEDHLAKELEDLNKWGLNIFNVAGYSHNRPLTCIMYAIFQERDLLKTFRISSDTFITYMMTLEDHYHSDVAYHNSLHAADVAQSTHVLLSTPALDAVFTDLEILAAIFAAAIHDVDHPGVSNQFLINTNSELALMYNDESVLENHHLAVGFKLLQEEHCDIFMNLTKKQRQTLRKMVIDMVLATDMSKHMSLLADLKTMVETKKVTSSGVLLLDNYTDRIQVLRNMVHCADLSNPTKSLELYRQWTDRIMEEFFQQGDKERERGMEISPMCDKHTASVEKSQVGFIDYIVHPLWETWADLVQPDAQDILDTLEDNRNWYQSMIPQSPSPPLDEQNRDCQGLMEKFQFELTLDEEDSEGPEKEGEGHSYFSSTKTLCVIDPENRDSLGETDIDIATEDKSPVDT

Regarding `CCOc1cc([C@@H](CS(C)(=O)=O)N2C(=O)c3cccc(NC(C)=O)c3C2=O)ccc1OC` [Apremilast, reference compound], the “Decrease of average clinical symptom score compared to vehicle control group” value in test [1] (5 mg/kg gavage once a day for 11 days, 37th day, p<0.001) is 3.7. Besides, the “Total pathological score (both hind limbs)” value in test [1] (5 mg/kg gavage once a day for 11 days, p<0.05 vs vehicle) is 13.90±1.89. Also, in test [1] (Mus musculus, po, 264 h, 5 mg/kg gavage once a day for 11 days, read-out: Inhibition rate of area under the clinical score curve (AUC) relative to vehicle control group), the inhibition at 5 mg/kg turned out to be 41.3%. Besides, in test [1] (gavage once a day for 11 days, 37th day), the “Average clinical symptom score” value is listed as 4.2.

`CCOc1cc([C@@H](CS(C)(=O)=O)n2c(=O)[nH]c3c(C)c(-c4ccccc4F)cnc32)ccc1OC` [Compound 1]: the “In vitro activity of inhibiting PDE4B (conclusion)” value in test [2] is on record as “excellent in vitro activity”. Besides, the “In vitro activity of inhibiting TNFα production in hPBMC (conclusion)” value in test [3] is reported as “excellent in vitro activity”. This molecule also returned a half-inhibitory concentration (IC50) in test [3] (Homo sapiens, PBMC, LPS 1 ng/mL, 24 h, TNFα in supernatant by ELISA) of 0.56 nM. Moreover, the Clinical average score is 3.6 in test [1] (0.3 mg/kg gavage once a day for 11 days, 37th day, p<0.0001 vs vehicle); 4.3 in test [1] (1 mg/kg gavage once a day for 11 days, 37th day, p<0.001 vs vehicle); 3.5 in test [1] (3 mg/kg gavage once a day for 11 days, 37th day, p<0.0001 vs vehicle). Moreover, the “Arthritis pathology (conclusion)” value in test [1] (1 mg/kg and 3 mg/kg dose groups) was “significant improvement”. Moreover, the “Total pathological score (both hind limbs)” value is reported as 14.00±2.43 in test [1] (1 mg/kg gavage once a day for 11 days, p<0.05 vs vehicle) and 9.20±1.83 in test [1] (3 mg/kg gavage once a day for 11 days, p<0.0001 vs vehicle). Further, in test [1] (Compound 1 at 3 mg/kg vs Apremilast at 5 mg/kg), the “Therapeutic effect (clinical score and arthritis pathological score) compared with Apremilast” value was “better than that of Apremilast at 5 mg/kg”. Moreover, the inhibition at 0.3 mg/kg in test [1] (setting [4]) was determined as 43.9%. Also, the inhibition at 1 mg/kg in test [1] (Mus musculus, po, 264 h, 1 mg/kg gavage once a day for 11 days, read-out: Inhibition rate of area under the clinical score curve (AUC) relative to vehicle control group) was found to be 39.4%. Besides, the inhibition at 3 mg/kg in test [1] (Mus musculus, po, 264 h, 3 mg/kg gavage once a day for 11 days, read-out: Inhibition rate of area under the clinical score curve (AUC) relative to vehicle control group) turned out to be 51.7%. Besides, the “Symptoms of the collagen-induced arthritis (conclusion)” value in test [1] (three dose groups of 0.3, 1 and 3 mg/kg) is “significantly improved”.

In test [1] (0.3 mg/kg gavage once a day, from the 30th day until the end of the experiment, p<0.0001 vs vehicle), `C[C@@H]1C[C@H]2[C@@H]3CCC4=CC(=O)C=C[C@]4(C)[C@@]3(F)[C@@H](O)C[C@]2(C)[C@@]1(O)C(=O)CO` [Dexamethasone, reference compound] yielded a Clinical score of 0. Besides, the inhibition at 0.3 mg/kg in test [1] (setting [4]) was 96.4%.

As a reminder, the inhibition is the share of the control response that was lost under treatment. By IC50 is commonly meant the concentration needed to halve the response being measured.

The record behind these values is patent publication US11325907B2, “Crystal form of 1H-imidazo[4,5-b]pyridine-2(3H)-one compound and preparation process therefor” (MEDSHINE DISCOVERY INC., priority 2018, dated 2022).
